According to article PMC2248166, “Quantitative peptide binding motifs for 19 human and mouse MHC class I molecules derived using positional scanning combinatorial peptide libraries” (Immunome Research, 2008):

Assays:
Format in all cases: binding
[1] = biological target: HLA B*5802 (Homo sapiens, UniProt P01889, A329T/C349S/D201E/D98Y/E176V/E187L/E204Q/E69T/G107R/I218V/I90N/K202T/L105A/N104I/N87E/Q89R/Q94S/R106L/R155S/R180L/R86G/S101N/S121W/S35A/S48A/V127L/V306I/V36M/Y140S/Y91M)
[2] = biological target: HLA B*5301 (Homo sapiens, UniProt P01889, A329T/A93T/A95T/C349S/D201E/D98Y/E176V/E187L/E204Q/E69T/G107R/I218V/K202T/L105A/L119I/N104I/Q94N/R106L/R155S/R180L/S101N/S121R/S35A/S48A/T118I/V127L/V306I/V36M/Y140S/Y91F)
[3] = biological target: H-2 D^b (Mus musculus, UniProt P01899)
[4] = biological target: H-2 K^k (Mus musculus, UniProt P04223)
[5] = biological target: HLA B*5401 (Homo sapiens, UniProt P01889, A329T/C349S/D138N/D201E/E176V/E187T/E204Q/E69G/I76V/K202T/L119W/R155S/R180L/S121T/S35A/S48A/V127L/V306I/V36M/Y140L)
[6] = biological target: HLA B*5801 (Homo sapiens, UniProt P01889, A329T/C349S/D201E/D98Y/E176V/E187L/E204Q/E69T/G107R/I218V/I90N/K202T/L105A/L119I/N104I/N87E/Q89R/Q94S/R106L/R155S/R180L/R86G/S101N/S121R/S35A/S48A/T118I/V127L/V306I/V36M/Y140S/Y91M)
[7] = biological target: HLA B*1501 (Homo sapiens, UniProt P01889, A329T/A93T/A95T/C349S/D201E/D98Y/E187L/E204Q/E69M/E70A/K202T/N87E/Q94N/R155S/R180W/S121R/S35A/S48A/V306I/V36M/Y140S/Y91S); assay: biochemical
[8] = biological target: HLA B*3501 (Homo sapiens, UniProt P01889, A329T/A93T/A95T/C349S/D201E/D98Y/E176V/E187L/E204Q/E69T/I218V/K202T/L119I/Q94N/R155S/R180L/S121R/S35A/S48A/T118I/V127L/V306I/V36M/Y140S/Y91F)
[9] = biological target: HLA B*5101 (Homo sapiens, UniProt P01889, A329T/A93T/A95T/C349S/D138N/D201E/D98Y/E187L/E204Q/E69T/G107R/I218V/K202T/L105A/L119W/N104I/Q94N/R106L/R155S/R180L/S101N/S121T/S35A/S48A/V306I/V36M/Y195H/Y91F)
[10] = biological target: H-2 K^d (Mus musculus, UniProt P01902)
[11] = biological target: HLA A*3001 (Homo sapiens, UniProt P04439, D140H/D185E/E176W/F33S/G80R/H175R/K168Q/R138E/R41S); assay: biochemical
[12] = biological target: H-2 D^d (Mus musculus, UniProt P01900)
[13] = biological target: HLA B*0801 (Homo sapiens, UniProt P01889, A93T/A95T/D138N/E176V/E187T/K202T/Q94N/R180D/S35A/V36M/Y33D/Y91F); assay: biochemical
[14] = biological target: HLA A*3201 (Homo sapiens, UniProt P04439, A270S/D101S/D185E/E176V/E277Q/F133L/G103R/G107R/G231S/H175R/I121M/I218V/I322F/K168Q/L105A/L300P/L318F/M331R/P208A/P217A/Q94H/R106L/R138Q/S129P/T104I/T323A/T345S/V100E/V321M/V358M); assay: biochemical
[15] = biological target: HLA A*6802 (Homo sapiens, UniProt P04439, A269V/D140Y/D185E/E176V/E277Q/E87N/F33Y/G231S/I121R/I166T/I218V/L180W/L300P/L318F/N151K/P208A/P217A/Q86R/R138H/R169H/S129P/T345S/V36M)
[16] = biological target: HLA B*1503 (Homo sapiens, UniProt P01889, A329T/A93T/A95T/C349S/D201E/D98Y/E187L/E204Q/K202T/N87E/Q94N/R155S/R180L/S121R/S35A/V306I/V36M/Y140S/Y91S); assay: biochemical

H-2 K^k, sequence (P01887 21-119): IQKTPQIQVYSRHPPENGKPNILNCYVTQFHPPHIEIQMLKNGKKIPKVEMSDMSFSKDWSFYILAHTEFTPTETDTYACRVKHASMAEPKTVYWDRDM
H-2 K^k, sequence (P04223 22-369): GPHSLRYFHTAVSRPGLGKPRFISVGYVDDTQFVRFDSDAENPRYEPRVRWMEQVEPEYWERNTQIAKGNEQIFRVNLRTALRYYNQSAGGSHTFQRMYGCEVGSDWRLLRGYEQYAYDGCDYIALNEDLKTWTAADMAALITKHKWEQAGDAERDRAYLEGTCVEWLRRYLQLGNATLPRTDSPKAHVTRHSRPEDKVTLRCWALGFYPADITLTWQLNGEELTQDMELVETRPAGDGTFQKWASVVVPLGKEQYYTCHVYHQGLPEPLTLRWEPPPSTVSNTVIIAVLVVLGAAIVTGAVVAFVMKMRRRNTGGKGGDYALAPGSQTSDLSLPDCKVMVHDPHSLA
H-2 K^d, sequence (P01887 21-119): as the sequence (P01887 21-119) above
H-2 K^d, sequence (P01902 22-368): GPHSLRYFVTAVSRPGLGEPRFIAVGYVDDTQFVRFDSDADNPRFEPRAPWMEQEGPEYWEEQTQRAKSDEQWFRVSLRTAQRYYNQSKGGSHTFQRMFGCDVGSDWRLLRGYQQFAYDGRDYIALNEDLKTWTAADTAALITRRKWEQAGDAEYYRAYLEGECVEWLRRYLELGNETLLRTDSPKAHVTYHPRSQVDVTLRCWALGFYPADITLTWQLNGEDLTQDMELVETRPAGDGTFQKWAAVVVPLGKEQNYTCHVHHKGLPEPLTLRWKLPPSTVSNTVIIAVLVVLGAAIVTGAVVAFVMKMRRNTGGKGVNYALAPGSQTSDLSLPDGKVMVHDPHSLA
H-2 D^b, sequence (P01887 21-119): as the sequence (P01887 21-119) above
H-2 D^b, sequence (P01899 25-362): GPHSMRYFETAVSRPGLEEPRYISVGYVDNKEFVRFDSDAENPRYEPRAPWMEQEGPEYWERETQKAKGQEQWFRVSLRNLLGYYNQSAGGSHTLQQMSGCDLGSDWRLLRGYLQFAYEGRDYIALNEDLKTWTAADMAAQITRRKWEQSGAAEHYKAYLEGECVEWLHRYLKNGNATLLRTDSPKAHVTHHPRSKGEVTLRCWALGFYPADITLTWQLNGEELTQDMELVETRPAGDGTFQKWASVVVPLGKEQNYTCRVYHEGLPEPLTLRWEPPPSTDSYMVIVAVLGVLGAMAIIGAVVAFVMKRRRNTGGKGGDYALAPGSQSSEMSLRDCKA
H-2 D^d, sequence (P01900 whole entry, looked up): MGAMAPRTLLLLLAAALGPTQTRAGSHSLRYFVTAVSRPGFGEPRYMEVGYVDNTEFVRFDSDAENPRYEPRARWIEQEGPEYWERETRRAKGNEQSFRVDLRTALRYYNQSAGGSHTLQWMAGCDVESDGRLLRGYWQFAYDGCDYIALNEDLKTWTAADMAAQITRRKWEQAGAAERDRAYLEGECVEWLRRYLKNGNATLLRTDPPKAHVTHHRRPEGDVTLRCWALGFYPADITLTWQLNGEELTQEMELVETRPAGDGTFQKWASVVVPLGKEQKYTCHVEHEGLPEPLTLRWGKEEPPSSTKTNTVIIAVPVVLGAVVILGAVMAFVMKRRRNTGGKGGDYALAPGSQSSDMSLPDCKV

Sequence | Normalized average relative binding affinity(ARB) [1] | Normalized average relative binding affinity(ARB) [2] | Normalized average relative binding affinity(ARB) [3] | Normalized average relative binding affinity(ARB) [4] | Normalized average relative binding affinity(ARB) [5] | Normalized average relative binding affinity(ARB) [6] | Normalized average relative binding affinity(ARB) [7] | Normalized average relative binding affinity(ARB) [8] | Normalized average relative binding affinity(ARB) [9] | Normalized average relative binding affinity(ARB) [10] | Normalized average relative binding affinity(ARB) [11] | Normalized average relative binding affinity(ARB) [12] | Normalized average relative binding affinity(ARB) [13] | Normalized average relative binding affinity(ARB) [14] | Normalized average relative binding affinity(ARB) [15] | Normalized average relative binding affinity(ARB) [16]
XXXXXXPXX [3064.0133] | 1.0 | 0.50 | 0.26 | 0.10 | 0.32 | 0.22 | 0.62 | 0.31 | 0.53 | 0.021 | 1.0 | 0.020 | 0.36 | 0.088 | 0.37 | 0.16
XXXXXXQXX [3064.0134] | 0.22 | 1.0 | 0.84 | 0.016 | 1.0 | 0.23 | 0.51 | 0.36 | 0.50 | 0.25 | 0.29 | 0.057 | 0.79 | 0.33 | 0.45 | 0.95
XXXXXXRXX [3064.0135] | 0.21 | 0.25 | 0.15 | 0.21 | 0.13 | 0.075 | 0.22 | 0.16 | 0.57 | 0.11 | 0.085 | 0.013 | 0.50 | 0.10 | 0.11 | 0.21
XXXXXXSXX [3064.0136] | 0.044 | 0.087 | 0.34 | 0.16 | 0.098 | 0.14 | 0.65 | 0.22 | 0.51 | 0.92 | 0.042 | 0.038 | 0.35 | 0.14 | 0.40 | 0.32
XXXXXXTXX [3064.0137] | 0.057 | 0.081 | 0.67 | 0.061 | 0.33 | 0.28 | 0.49 | 0.27 | 0.58 | 1.0 | 0.11 | 0.029 | 0.46 | 0.14 | 0.60 | 0.16
XXXXXXVXX [3064.0138] | 0.073 | 0.32 | 0.57 | 0.079 | 0.77 | 0.53 | 0.56 | 0.57 | 0.57 | 0.13 | 0.19 | 0.045 | 0.55 | 1.0 | 0.80 | 0.19
XXXXXXWXX [3064.0139] | 0.18 | 0.31 | 0.31 | 0.064 | 0.22 | 0.79 | 0.31 | 1.0 | 0.91 | 0.056 | 0.16 | 0.044 | 0.53 | 0.48 | 1.0 | 0.15
XXXXXXXAX [3064.0141] | 0.31 | 0.80 | 0.50 | 0.82 | 0.50 | 0.14 | 0.36 | 1.0 | 0.52 | 1.0 | 0.53 | 0.93 | 0.95 | 0.99 | 1.0 | 0.27
